We go through 2 compounds from the NIST ThermoML archive (doi:10.1016/j.jct.2011.12.019).

Each structure is given as a SMILES string. ± gives the expanded uncertainty stated by the source.

This series can be described thus: molar enthalpy of vaporization or sublimation. To be noted: 298.15 K, drop calorimetry.

`Cc1ccc(C#N)n1C` [1,5-dimethyl-2-pyrrolecarbonitrile]: where the note is “Crystal”, the molar enthalpy is 18.7 ± 0.765 kcal/mol.

For `N#Cc1ccc[nH]1` [2-cyanopyrrole;], under “Liquid”, the molar enthalpy came to 15.6 ± 0.669 kcal/mol.
